In US9211284B2, “Diagnosis and treatment of P.R.I.C.E. syndrome” (priority 2013, dated 2015):
Entries after “also recorded” stand apart in the source; their conditions may differ.

Legend:
[1] = tested on: patient having P.R.I.C.E. Syndrome; assay: Example 1: case report of a patient with P.R.I.C.E. Syndrome, earlier medications then KAPVAY (plus inositol)
Description: The patient was tried on many psychostimulant medications, which are the gold standard for treatment of ADHD. Medications in this class include: Adderall/XR, Focalin/XR, Dexedrine, Vyvanse, Ritalin/LA/ER, Metadate ER/CD, Concerta and Daytrana.
By convention, psychiatrists refer to this phenomenon as Bipolar III or hypomania induced by medication which predicts and unmasks the development of spontaneous mood swings of genuine Bipolar to come for the patient later in life.
Nevertheless, the psychiatrist tried a series of atypical antipsychotics, including Zyprexa, Geodon, Seroquel as well as two FDA approved drugs for treatment of irritability in Autistic Disorder, Abilify and Risperdal.
The Applicant tapered and discontinued the aforementioned medications in the patient. The Applicant then titrated up KAPVAY® as follows: 0.1 mg at bedtime for a week; next, 0.1 mg twice a day for a week; next, 0.1 mg in the morning and 0.2 mg at night for one week; and finally 0.2 mg twice a day going forward.

[2] = tested on: patient having P.R.I.C.E. Syndrome; assay: Example 2: case report of a patient with P.R.I.C.E. Syndrome, earlier medications then INTUNIV (plus inositol); type: in vivo, human; details: Example 2 patient; for effect on the patient's symptoms (particularism, concentration) / side effects: medications given before the P.R.I.C.E. diagnosis
Experimental: They had been taking Zoloft and Abilify, as well as Melatonin to help them sleep.
The Applicant tapered and discontinued the patient's then-current medications. The Applicant then titrated up INTUNIV® 1 mg at bedtime, increasing by an additional 1 mg at bedtime every week as necessary to achieve symptom control, up to a maximum of 4 mg.

[3] = tested on: patients having P.R.I.C.E. Syndrome; assay: Applicant's general clinical findings in patients who meet all criteria for P.R.I.C.E. Syndrome; type: in vivo, human; details: patients meeting all P.R.I.C.E. criteria, Applicant's practice
Description: Both KAPVAY® and INTUNIV® are FDA-approved for treatment of ADHD. […] A psychiatrist would be led away from prescribing KAPVAY® or INTUNIV® to patients with suspected Bipolar Disorder since it is known that alpha-2 adrenergic agonists could potentially exacerbate emotional lability found in such patients.
Extended release clonidine is capable of stable therapeutic effects by maintaining a constant serum level for an extended period in order to avoid the “peak and trough” side effects of transient sedation at peak serum levels and rebound exacerbation of symptoms at trough levels. Embodiments of extended release compositions of clonidine are described in U.S. Pat. No. 5,869,100, which is incorporated herein by reference in its entirety.

[4] = cited from earlier work
[5] = tested on: patients with Bipolar Disorder; details: post-marketing reports; cited from earlier work
[6] = Example 1 patient, medications tried before the P.R.I.C.E. diagnosis

SMILES | side effects ([1]; human, in vivo) | effect on the patient's symptoms (agitation, impulsivity, concentration, rigidity) [1, 6] | further results
[Li] [Lithium] |  |  | side effects [1, 6]: worsening the patient's concentration
O=C1CCc2ccc(OCCCCN3CCN(c4cccc(Cl)c4Cl)CC3)cc2N1 [Abilify] | severe sedation, impaired their concentration further and caused an increase in both appetite and weight |  | effect on the patient's symptoms (particularism, concentration) [2]: without improvement in concentration; side effects [2]: sedation and tremor
NC(=O)N1c2ccccc2C=Cc2ccccc21 [Tegretol] | worsening the patient's concentration | ineffective | 
CNCC[C@@H](Oc1ccccc1C)c1ccccc1 [Strattera] |  | increased agitation and impulsivity | 
CNCCC(Oc1ccc(C(F)(F)F)cc1)c1ccccc1 (stereo not shown) [Prozac] |  |  | effect on the patient's symptoms (particularism, concentration) [2]: did not alleviate the particularism; side effects [2]: become “wild” and unable to sleep
CCCC(CCC)C(=O)O [Depakote] |  | ineffective; also recorded: not helping their agitation | 
NC(=O)N1c2ccccc2CC(=O)c2ccccc21 [Trileptal] | worsening the patient's concentration | ineffective | 
Clc1cccc(Cl)c1N=C1NCCN1 [short-acting clonidine, 2,6-dichloro-N-2-imidazolidinylidene benzeneamine] | too sedative | not effective | effectiveness in treating P.R.I.C.E. Syndrome [3]: ineffective; biological half-life ([4]; after oral administration of short-acting clonidine): four to six; primary side-effect ([4]; short-acting clonidine, about an hour after the given dose): sedation; absorption from the gastrointestinal tract ([4]; short-acting oral formulation): almost completely absorbed
Cc1nc2n(c(=O)c1CCN1CCC(c3noc4cc(F)ccc34)CC1)CCCC2 [Risperdal] | severe sedation, impaired their concentration further and caused an increase in both appetite and weight |  | side effects [2]: sedation and weight gain
CC(NC(C)(C)C)C(=O)c1cccc(Cl)c1 (stereo not shown) [Wellbutrin] |  | increased agitation and impulsivity | 
CN(C)CCC[C@@]1(c2ccc(F)cc2)OCc2cc(C#N)ccc21 [Lexapro] |  | worsening their agitation without helping their rigidity | 
CC1(C)O[C@@H]2[C@@H](CO[C@@]3(COS(N)(=O)=O)OC(C)(C)O[C@@H]23)O1 [Topamax] | worsening the patient's concentration | ineffective | 
NC(=O)C[S@@+]([O-])C(c1ccccc1)c1ccccc1 [Nuvigil] |  | increased agitation and impulsivity | 
Cc1cc2c(s1)Nc1ccccc1N=C2N1CCN(C)CC1 [Zyprexa] | severe sedation, impaired their concentration further and caused an increase in both appetite and weight |  | 
CN[C@H]1CC[C@@H](c2ccc(Cl)c(Cl)c2)c2ccccc21 [Zoloft] |  |  | effect on the patient's symptoms (particularism, concentration) [2]: did not alleviate the particularism; side effects [2]: become “wild” and unable to sleep
N=C(N)NC(=O)Cc1c(Cl)cccc1Cl [Tenex, N-(Aminoiminomethyl)-2,6-dichlorobenzeneacetamide; N-amidino-2-(2,6 dichlorophenyl) acetamide] |  | not effective | side effects [1, 6]: too sedative; manic symptoms in Bipolar Disorder [5]: development or exacerbation of manic symptoms
O[C@H]1[C@H](O)[C@@H](O)[C@H](O)[C@@H](O)[C@H]1O [Inositol, inositol] |  |  | effectiveness in treating P.R.I.C.E. Syndrome [3]: effective in addressing residual particularism; effect on "getting stuck" on certain topics in conversation ([2]; Inositol 9000 mg twice a day added to INTUNIV): therapeutically beneficial
O=C1Cc2cc(CCN3CCN(c4nsc5ccccc45)CC3)c(Cl)cc2N1 [Geodon] | severe sedation, impaired their concentration further and caused an increase in both appetite and weight |  | 
COC(=O)C(c1ccccc1)C1CCCCN1 (stereo not shown) [Daytrana] |  | worsen their agitation without helping their concentration | 
Nc1nnc(-c2cccc(Cl)c2Cl)c(N)n1 [Lamictal] |  | ineffective; also recorded: not helping their agitation | 
OCCOCCN1CCN(C2=Nc3ccccc3Sc3ccccc32)CC1 [Seroquel] | severe sedation, impaired their concentration further and caused an increase in both appetite and weight |  | 
CC(C)NCC(O)COc1cccc2ccccc12 (stereo not shown) [propranolol] | too sedative | not effective | 
NC(=O)C[S+]([O-])C(c1ccccc1)c1ccccc1 (stereo not shown) [Provigil] |  | increased agitation and impulsivity | 
